Tests used:
Mus musculus [1] = experiment: Antagonism of apomorphine in reserpinized mice when a dose of 37 micro mol/kg is administered intraperitoneally; format: functional
D(2) dopamine receptor [2] = biological target: D(2) dopamine receptor (Homo sapiens, UniProt P14416); experiment: Binding affinity against [3H]U-86,170-labeled dopamine receptor D2 in cloned CHO cells; format: cell-based
Mus musculus [3] = experiment: Ability to stimulate dopaminergic systems by effect on locomotor activity in reserpinized mice when a dose of 3.7 micro mol/kg is administered intraperitoneally; format: functional
Rattus norvegicus [4] = experiment: Inhibition of firing rates of dopaminergic neurons in the substantia nigra pars compacta by intravenous injection in rats.; format: functional
Rattus norvegicus [5] = organism: Rattus norvegicus; experiment: Effect on the synthesis rates of serotonin (5-HTP accumulation) in the rat ventral limbic brain region […]; format: functional, Limbic system
Mus musculus [6] = experiment: Antagonism of apomorphine for 0-10 minutes in reserpinized mice when a dose of 37 micro mol/kg is administered intraperitoneally; format: functional
Mus musculus [7] = experiment: Ability to stimulate dopaminergic systems by effect on locomotor activity in reserpinized mice when a dose of 0.4 micro mol/kg is administered intraperitoneally; format: functional
Mus musculus [8] = experiment: Antagonism of apomorphine for 0-10 minutes in reserpinized mice when a dose of 0.4 micro mol/kg is administered intraperitoneally; format: functional
Mus musculus [9] = experiment: Maximum decrease in temperature when compound is administered subcutaneously; format: functional
Mus musculus [10] = experiment: Ability to stimulate dopaminergic systems by effect on locomotor activity in reserpinized mice when a dose of 37 micro mol/kg is administered intraperitoneally; format: functional
Mus musculus [11] = experiment: Effective dose on hypothermia in mouse when administered through peroral route; format: functional; conditions: Mus musculus, po; read-out: ED50
Mus musculus [12] = experiment: Antagonism of apomorphine in reserpinized mice when a dose of 3.7 micro mol/kg is administered intraperitoneally; format: functional
Mus musculus [13] = experiment: Antagonism of apomorphine for 0-10 minutes in reserpinized mice when a dose of 3.7 micro mol/kg is administered intraperitoneally; format: functional
Mus musculus [14] = experiment: Antagonism of apomorphine for 10-20 minutes in reserpinized mice when a dose of 37 micro mol/kg is administered intraperitoneally; format: functional
Mus musculus [15] = experiment: Effective dose on hypothermia in mouse when administered subcutaneously; format: functional; conditions: Mus musculus, sc; read-out: ED50
D(2) dopamine receptor [16] = biological target: D(2) dopamine receptor (Rattus norvegicus, UniProt P61169); experiment: Binding affinity for [3H]raclopride-labeled dopamine receptor D2 in rat striatum; format: tissue-based
Chain of D(2) dopamine receptor (Rattus norvegicus, UniProt P61169) (P61169 whole entry): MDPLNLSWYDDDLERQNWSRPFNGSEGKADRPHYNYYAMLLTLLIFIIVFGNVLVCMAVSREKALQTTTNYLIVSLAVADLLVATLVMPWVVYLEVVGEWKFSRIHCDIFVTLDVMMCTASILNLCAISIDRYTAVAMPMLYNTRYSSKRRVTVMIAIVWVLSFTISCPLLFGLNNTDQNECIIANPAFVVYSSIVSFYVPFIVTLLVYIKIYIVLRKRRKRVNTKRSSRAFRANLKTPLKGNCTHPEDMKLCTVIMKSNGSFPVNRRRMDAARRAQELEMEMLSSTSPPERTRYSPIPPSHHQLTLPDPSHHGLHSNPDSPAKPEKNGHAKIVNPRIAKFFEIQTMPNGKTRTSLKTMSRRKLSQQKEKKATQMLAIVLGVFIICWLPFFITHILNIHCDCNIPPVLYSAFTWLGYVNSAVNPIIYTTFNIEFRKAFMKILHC

Mus musculus [17] = experiment: Maximum decrease in temperature when compound is administered through peroral route; format: functional
Mus musculus [18] = experiment: Antagonism of apomorphine for 10-20 minutes in reserpinized mice when a dose of 3.7 micro mol/kg is administered intraperitoneally; format: functional
Rattus norvegicus [19] = experiment: Effect on the synthesis rates of dopamine (DOPA accumulation) in the rat ventral limbic brain region at 3.7 uM/kg.; format: functional, Limbic system
Mus musculus [20] = experiment: Antagonism of apomorphine in reserpinized mice when a dose of 0.4 micro mol/kg is administered intraperitoneally; format: functional
Mus musculus [21] = experiment: Antagonism of apomorphine for 0-10 minutes in reserpinized mice when a dose of 38 micro mol/kg is administered intraperitoneally; format: functional
Mus musculus [22] = experiment: Antagonism of apomorphine in reserpinized mice when a dose of 3.8 micro mol/kg is administered intraperitoneally (**,p<0.10); format: functional
Mus musculus [23] = experiment: Ability to stimulate dopaminergic systems by effect on locomotor activity in reserpinized mice when a dose of 3.8 micro mol/kg is administered intraperitoneally; format: functional
Mus musculus [24] = experiment: Ability to stimulate dopaminergic systems by effect on locomotor activity in reserpinized mice when a dose of 38 micro mol/kg is administered intraperitoneally; format: functional
Mus musculus [25] = experiment: Antagonism of apomorphine for 10-20 minutes in reserpinized mice when a dose of 3.8 micro mol/kg is administered intraperitoneally; format: functional
Mus musculus [26] = experiment: Antagonism of apomorphine in reserpinized mice when a dose of 38 micro mol/kg is administered intraperitoneally; format: functional
Mus musculus [27] = experiment: Antagonism of apomorphine for 10-20 minutes in reserpinized mice when a dose of 0.4 micro mol/kg is administered intraperitoneally; format: functional
Mus musculus [28] = experiment: Antagonism of apomorphine for 10-20 minutes in reserpinized mice when a dose of 38 micro mol/kg is administered intraperitoneally; format: functional
Mus musculus [29] = experiment: Antagonism of apomorphine for 0-10 minutes in reserpinized mice when a dose of 3.8 micro mol/kg is administered intraperitoneally; format: functional
Mus musculus [30] = experiment: Time of effect in the isolation-induced aggression behavioral assay in the mouse when a dose of 36 micro mol/kg is administered intraperitoneally; format: functional
Mus musculus [31] = experiment: Time of effect in the isolation-induced aggression behavioral assay in the mouse when a dose of 3.6 micro mol/kg is administered perorally; format: functional
Mus musculus [32] = experiment: Time of effect in the isolation-induced aggression behavioral assay in the mouse when a dose of 0.0 micro mol/kg is administered intraperitoneally; format: functional
Mus musculus [33] = experiment: Time of effect in the face-to-face behavioral assay in the mouse when a dose of 36 micro mol/kg is administered perorally; format: functional
Mus musculus [34] = experiment: Time of effect in the isolation-induced aggression behavioral assay in the mouse when a dose of 36 micro mol/kg is administered perorally; format: functional
Rattus norvegicus [35] = experiment: Effect on the synthesis rates of dopamine (DOPA accumulation) in the rat ventral limbic brain region at 10.7 uM/kg.; format: functional, Limbic system
Mus musculus [36] = experiment: Time of effect in the face-to-face behavioral assay in the mouse when a dose of 0.0 micro mol/kg is administered perorally; format: functional
Mus musculus [37] = experiment: Time of effect in the isolation-induced aggression behavioral assay in the mouse when a dose of 11 micro mol/kg is administered perorally; format: functional
Mus musculus [38] = experiment: Time of effect in the face-to-face behavioral assay in the mouse when a dose of 11 micro mol/kg is administered perorally; format: functional
Rattus norvegicus [39] = experiment: Inhibition of firing rates of serotonergic neurons in the dorsal raphe nucleus by intravenous injection in rats; format: functional; conditions: Rattus norvegicus, Dorsal raphe nucleus, iv; read-out: ED50
Mus musculus [40] = experiment: Time of effect in the isolation-induced aggression behavioral assay in the mouse when a dose of 11 micro mol/kg is administered intraperitoneally; format: functional
Rattus norvegicus [41] = experiment: Inhibition of firing rates of dopaminergic neurons in the substantia nigra pars compacta by intravenous injection in rats; format: functional
Rattus norvegicus [42] = experiment: Effect on the synthesis rates of serotonin (5-HTP accumulation) in the rat ventral limbic brain region 10.7 umol/kg.; format: functional, Limbic system

Chain of D(2) dopamine receptor (Homo sapiens, UniProt P14416) (P14416 whole entry): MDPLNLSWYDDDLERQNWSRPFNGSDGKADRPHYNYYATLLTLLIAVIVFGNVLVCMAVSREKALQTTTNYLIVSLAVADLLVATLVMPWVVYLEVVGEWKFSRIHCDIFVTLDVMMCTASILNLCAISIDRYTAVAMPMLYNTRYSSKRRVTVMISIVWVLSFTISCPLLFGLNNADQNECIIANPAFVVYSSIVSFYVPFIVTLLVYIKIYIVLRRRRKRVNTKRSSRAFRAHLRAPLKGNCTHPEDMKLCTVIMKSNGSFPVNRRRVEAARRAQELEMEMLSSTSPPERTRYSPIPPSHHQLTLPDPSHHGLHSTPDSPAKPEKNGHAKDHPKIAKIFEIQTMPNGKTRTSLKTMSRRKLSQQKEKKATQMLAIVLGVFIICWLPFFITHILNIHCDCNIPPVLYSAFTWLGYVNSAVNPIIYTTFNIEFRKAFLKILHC

CCCN1CC[C@@H]2Cc3c(O)cccc3C[C@H]21
Locomotor activity (Mus musculus [1]): 43
Ki (D(2) dopamine receptor [2]): 0.5 nM
Locomotor activity (Mus musculus [3]): 1014
ED50 (Rattus norvegicus [4]): 0.0014 µmol/kg
Control (Rattus norvegicus [5]): -9.5%
Locomotor activity (Mus musculus [6]): 93
Locomotor activity (Mus musculus [7]): 739
Locomotor activity (Mus musculus [8]): 48
Max temperature decrease (Mus musculus [9]): 7.5
Locomotor activity (Mus musculus [10]): 1625
ED50 (Mus musculus [11]): 0.04 µmol/kg
Locomotor activity (Mus musculus [12]): 47
Locomotor activity (Mus musculus [13]): 52
Locomotor activity (Mus musculus [14]): 53
ED50 (Mus musculus [15]): 0.03 µmol/kg
Ki (D(2) dopamine receptor [16]): 2 nM
Max temperature decrease (Mus musculus [17]): 10.9
Locomotor activity (Mus musculus [18]): 62
Control (Rattus norvegicus [19]): -45%
Locomotor activity (Mus musculus [20]): 56

C=CCN1CC[C@@H]2Cc3c(O)cccc3C[C@H]21
Ki (D(2) dopamine receptor [2]): 0.3 nM
ED50 (Rattus norvegicus [4]): 0.002 µmol/kg
Locomotor activity (Mus musculus [21]): 54
Locomotor activity (Mus musculus [22]): 147
Locomotor activity (Mus musculus [7]): 1092
Locomotor activity (Mus musculus [8]): 60
Locomotor activity (Mus musculus [23]): 1297
Locomotor activity (Mus musculus [24]): 1549
Locomotor activity (Mus musculus [25]): 29
Locomotor activity (Mus musculus [26]): 103
Ki (D(2) dopamine receptor [16]): 3 nM
Locomotor activity (Mus musculus [27]): 61
Locomotor activity (Mus musculus [20]): 141
Locomotor activity (Mus musculus [28]): 34
Locomotor activity (Mus musculus [29]): 23

C=CCN1CC[C@H]2Cc3c(cccc3OC)C[C@@H]21
Time (Mus musculus [30]): 83 s
Time (Mus musculus [31]): 36 s
Time (Mus musculus [32]): 5 s
Time (Mus musculus [33]): 0.9 s
Time (Mus musculus [34]): 219 s
Control (Rattus norvegicus [35]): 29%
Time (Mus musculus [36]): 0.3 s
Time (Mus musculus [37]): 63 s
Time (Mus musculus [38]): 0.7 s
ED50 (Rattus norvegicus [39]): 3.97 µmol/kg
Time (Mus musculus [40]): 46 s
ED50 (Rattus norvegicus [41]): 4.75 µmol/kg
Ki (D(2) dopamine receptor [16]): > 1000 nM
Control (Rattus norvegicus [42]): 4%

Source: ChEMBL document CHEMBL1126639, “Centrally acting serotonergic and dopaminergic agents. 2. Synthesis and structure-activity relationships of 2,3,3a,4,9,9a-hexahydro-1H-benz[f]indole derivatives” (J Med Chem, 1993)
